Where two headings read alike, the source gives them in different places.
How the values were obtained:
Assay type in all cases: cell-based
[1] = system: E. coli, LN 3164; experiment: MIC susceptibility test, microdilution broth method (NCCLS), chemosensitising compound alone; conditions: 16 h
Experimental: Bacteria were sub-cultured on Mueller-Hinton agar plates and incubated over night at 37° C. Pre-warmed Mueller-Hinton broth was inoculated with colonies from the plate and incubated for approximately three hours to achieve a log phase culture. The log phase culture of bacteria was diluted with fresh pre-warmed medium and adjusted to a defined Optical Density (OD) at 600 nm in order to give a final assay concentration of 1×10^4 bacteria/ml medium.
Cell growth was tested using the MIC susceptibility tests by use of the microdilution broth method in accordance to the NCCLS Guidelines (NCCLS Guidelines, Methods for Dilution Antimicrobial Susceptibility Tests for Bacteria That Grow Aerobically; Approved Standard, Sixth Edition, Volume 23; Number 2). A 100% Mueller-Hinton broth and a bacterial concentration of 1×10^4/ml were used.
A log phase culture of bacteria was diluted with fresh pre-warmed medium and adjusted to a defined OD at 600 nm in order to give a final concentration of 1×10^4 bacteria/ml medium in each well. Each chemosensitising compound was added to the bacterial culture in the wells in two-fold dilutions in order to give final concentrations ranging from 8 to 500 μg/ml. Trays were incubated at 37° C. for 16 h. Minimal Inhibitory Concentration, (MIC) is defined as the lowest inhibitory concentration showing no visible growth according to the NCCLS Guidelines.

[2] = system: E. coli, LN 3164; experiment: Effect of chemosensitising compounds on DR (DR ratio) with ciprofloxacin, microtiter assay; conditions: E. coli LN 3164; for DR ratio: MIC ciprofloxacin alone / MIC ciprofloxacin + chemosensitising compound at ¼ of its MIC
Experimental: The effects of the chemosensitising compounds on DR were studied by the microtiter assay described above by exposing cells to 0-64 μg/ml anti-infective drug in the absence or presence of chemosensitising compound. Each experiment was repeated in tripleduplicate. MIC values represent the mean values of two separate experiments.
A log phase culture of bacteria was diluted with fresh pre-warmed medium and adjusted to a defined OD at 600 nm in order to give a final concentration of 1×10^4 bacteria/ml medium in each well. […] Anti-infective agent was added to the bacterial culture in the wells in two-fold dilutions in order to give final concentrations ranging from 0 to 64 μg/ml. Trays were incubated at 37° C. for 16 h. The DR ratio was defined as the ratio between the MIC value for anti-infective agent alone divided by the MIC for the anti-infective agent in the presence of the chemosensitising compound. This ratio represents the increase in apparent potency of the anti-infective agent caused by the chemosensitising compound, and may be expressed as
DR ratio=(MICanti-infective agent)/(MICanti-infective agent+chemosensitising compound)

[3] = system: Fluconazole Resistant Candida albicans; experiment: Checkerboard combination study on fungals, broth microdilution (NCCLS M27-A); conditions: Candida albicans
Experimental: The synergistic effect of Trans-clopenthixol was studied by checkerboard combination studies exposing cells to 0-256 μg/ml anti-infective agent in the absence or presence of trans-clopenthixol (0 to 8 μg/ml in two-fold dilutions). Each experiment was repeated in tripleduplicate. MIC values represent the mean values of two separate experiments.
Clinical Isolate of a Fluconazole Resistant Candida albicans from a Patient with candidemia.
The isolates were subcultured for 24 h on Sabouraud glucose agar before susceptibility testing.
Broth microdilution tests were performed according to NCCLS document M27-A (Ref: National Committee for Clinical Laboratory Standards. (1997). Reference Method for Broth Dilution Antifungal Susceptibility Testing of Yeasts: Approved Standard M27-A. NCCLS, Wayne, Pa.)
Microtitre plates were read spectrophotometrically at 530 nm, after mixing the wells by pipetting to resuspend yeast sediments.
The Fractional Inhibitory Concentration (FIC) was calculated for the anti-infective agent alone and in combination with trans-clopenthixol. The following formulae were used to calculate the FIC index:
FIC=FICchemosensitising compound+FICanti-infective agent
FICchemosensitising compound=(MICchemosensitising compound+anti-infective agent)/(MICchemosensitising compound)
FICanti-infective agent=(MICanti-infective agent+chemosensitising compound/(MICanti-infective agent)
Synergy was defined as a FIC index of <0.5.

Row | SMILES | MIC ([1]; 37° C.) [µg/mL] | DR ratio [2] | MIC ([1]; Escherichia coli, LN3164, 37° C., read-out: MIC) [µg/mL] | MIC [3] [µg/mL] | sensitised drug resistant cells to ciprofloxacin by ([2]; ciprofloxacin) [%]
1 | CN(C)CCCN1c2ccccc2Sc2cccc(Cl)c21 [1-chlorpromazine] | 64 | 2 | – | – | –
2 | CN(C)CCN1c2ccccc2Sc2ccc(Cl)cc21 [2-chloro-10-(2-dimethylaminoethyl)phenothiazine] | – | 2 | 64 | – | –
3 | CN(C)CCCN1c2cc(Cl)ccc2Sc2cc(O)c(O)cc21 [7,8-dihydroxy-chlorpromazine, 7,8-dihydroxychlorpromazine] | 125 | 0.5 | – | – | –
4 | CN(C)CCCN1c2ccc(O)cc2Sc2ccc(Cl)cc21 [7-hydroxy-chlorpromazine, 7-hydroxychlorpromazine] | 125 | 1 | – | – | –
5 | CNCCCN1c2ccccc2Sc2ccc(Cl)cc21 [Desmethyl-chlorpromazine, desmethylchlorpromazine] | 32 | 2 | – | – | –
6 | OC(Cn1cncn1)(Cn1cncn1)c1ccc(F)cc1F [Fluconazole, reference compound] | – | – | – | 128 | –
7 | OCCN1CCN(CCCN2c3ccccc3Sc3ccc(C(F)(F)F)cc32)CC1 [Fluphenazine, fluphenazine] | 32 | 8 | – | – | –
8 | OCCN1CCN(CCCN2c3ccccc3Sc3ccc(Cl)cc32)CC1 [Perphenazine, perphenazine] | 125 | 4 | – | – | –
9 | CN1CCN(CCCN2c3ccccc3Sc3ccc(Cl)cc32)CC1 [Prochlorperazine, prochlorperazine] | 64 | 4 | – | – | –
10 | CN(C)CCCN1c2ccccc2Sc2ccccc21 [Promazine, promazine] | 64 | 2 | – | – | 100

— patent publication US20080318970A1, “Treatment of Infectious Diseases” (priority 2004, published 2008)
